pKi: −log10 of the molar value. Structures can show the parent of a compound that is named as a salt.
Target: human H4 receptor (Homo sapiens, UniProt Q9H3N8)
Assay: biochemical
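Also: radioligand displacement of a [3H]-labelled ligand from membranes of CHO cells stably expressing human H4 receptor, bound radioactivity counted on filters by liquid scintillation.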

human H4 receptor, sequence (Q9H3N8 whole entry): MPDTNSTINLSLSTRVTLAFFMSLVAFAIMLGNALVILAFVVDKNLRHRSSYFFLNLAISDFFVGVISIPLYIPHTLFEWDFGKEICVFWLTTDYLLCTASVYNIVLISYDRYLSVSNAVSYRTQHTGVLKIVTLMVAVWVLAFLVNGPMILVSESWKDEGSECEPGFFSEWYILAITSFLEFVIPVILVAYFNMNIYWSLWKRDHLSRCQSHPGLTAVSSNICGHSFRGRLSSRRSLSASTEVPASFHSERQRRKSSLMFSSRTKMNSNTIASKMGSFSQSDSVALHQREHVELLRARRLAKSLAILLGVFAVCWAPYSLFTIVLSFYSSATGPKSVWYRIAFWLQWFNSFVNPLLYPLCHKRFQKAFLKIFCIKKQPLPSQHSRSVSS

SMILES | pKi
CN1CCC(OC2c3ccccc3CCn3cc(-c4ccc(CCN(C)C(=O)OC(C)(C)C)cc4)nc32)CC1 (stereo not shown) [Example 197, methyl-(2-{4-[4-(1-methylpiperidin-4-yloxy)-9,10-dihydro-4H-3,10a-diaza-benzo[f]azulen-2-yl]-phenyl}-ethyl)-carbamic acid tert-butyl ester] | > 7.52
CN1CCC(OC2c3ccccc3CCn3c2nc(-c2ccc(NC(=O)OC(C)(C)C)cc2)c3Cl)CC1 (stereo not shown) [Example 141, {4-[1-chloro-4-(1-methylpiperidin-4-yloxy)-9,10-dihydro-4H-3,10a-diaza-benzo[f]azulen-2-yl]-phenyl}-carbamic acid tert-butyl ester] | > 7.52
COC(=O)c1c(-c2ccccc2)nc2n1CCc1ccccc1C2OC1CCN(C)CC1 (stereo not shown) [Example 256, 4-(1-methylpiperidin-4-yloxy)-2-phenyl-9,10-dihydro-4H-3,10a-diaza-benzo[f]azulene-1-carboxylic acid methyl ester] | > 6.52
C=CCOc1ccc(-c2cn3c(n2)C(OC2CCN(C)CC2)c2ccccc2CC3)cc1 (stereo not shown) [Example 183, 2-(4-allyloxyphenyl)-4-(1-methylpiperidin-4-yloxy)-9,10-dihydro-4H-3,10a-diaza-benzo[f]azulene] | > 7.52
Cc1c(-c2ccc(N3C(=O)OCC3Cc3ccccc3)cc2)nc2n1CCc1ccccc1C2OC1CCN(C)CC1 (stereo not shown) [Example 176, 4-benzyl-3-{4-[1-methyl-4-(1-methylpiperidin-4-yloxy)-9,10-dihydro-4H-3,10a-diaza-benzo[f]azulen-2-yl]-phenyl}-oxazolidin-2-one] | > 7.52
COCCC(=O)NCc1ccc(-c2cn3c(n2)C(OC2CCN(C)CC2)c2ccccc2CC3)cc1 (stereo not shown) [Example 138, 3-methoxy-N-{4-[4-(1-methylpiperidin-4-yloxy)-9,10-dihydro-4H-3,10a-diaza-benzo[f]azulen-2-yl]-benzyl}-propionamide] | > 6.00
CC(C)Cc1cn2c(n1)C(OC1CCN(C)CC1)c1ccccc1CC2 (stereo not shown) [Example 109, 2-isobutyl-4-(1-methylpiperidin-4-yloxy)-9,10-dihydro-4H-3,10a-diaza-benzo[f]azulene oxalate] | > 6.52
CN1CCC(OC2c3ccccc3CCn3cc(-c4ccc(CNC(=O)OC(C)(C)C)cc4)nc32)CC1 (stereo not shown) [Example 115, {4-[4-(1-methylpiperidin-4-yloxy)-9,10-dihydro-4H-3,10a-diaza-benzo[f]azulen-2-yl]-benzyl}-carbamic acid tert-butyl ester] | > 6.52
Cc1c(C(O)C(C)C)nc2n1CCc1ccccc1C2OC1CCN(C)CC1 (stereo not shown) [Example 210, 2-methyl-1-[1-methyl-4-(1-methylpiperidin-4-yloxy)-9,10-dihydro-4H-3,10a-diaza-benzo[f]azulen-2-yl]-propan-1-ol, oxalate] | > 6.00
CN1CCC(OC2c3ccccc3CCn3cc(CCCOCc4ccccc4)nc32)CC1 (stereo not shown) [Example 128, 2-(3-benzyloxypropyl)-4-(1-methylpiperidin-4-yloxy)-9,10-dihydro-4H-3,10a-diaza-benzo[f]azulene oxalate] | > 6.52
C=C(C)Cc1nc2n(c1C(N)=O)CCc1ccccc1C2OC1CCN(C)CC1 (stereo not shown) [Example 266, 2-(2-methylallyl)-4-(1-methylpiperidin-4-yloxy)-9,10-dihydro-4H-3,10a-diaza-benzo[f]azulene-1-carboxylic acid amide] | > 6.52
CN1CCC(OC2c3ccccc3CCn3cc(CCc4cccs4)nc32)CC1 (stereo not shown) [Example 126, 4-(1-methylpiperidin-4-yloxy)-2-(2-thiophen-2-ylethyl)-9,10-dihydro-4H-3,10a-diaza-benzo[f]azulene oxalate] | > 6.52
Cc1c(-c2ccc(NC(=O)NC(C)(C)C)cc2)nc2n1CCc1ccccc1C2OC1CCN(C)CC1 (stereo not shown) [Example 209, 1-tertbutyl-3-{4-[1-methyl-4-(1-methylpiperidin-4-yloxy)-9,10-dihydro-4H-3,10a-diaza-benzo[f]azulen-2-yl]-phenyl}-urea] | > 7.52
CN1CCC(OC2c3cccc(F)c3CCn3cc(-c4ccccc4)nc32)CC1 (stereo not shown) [Example 107, 8-fluoro-4-(1-methylpiperidin-4-yloxy)-2-phenyl-9,10-dihydro-4H-3,10a-diaza-benzo[f]azulene] | > 6.00
Cc1ccc(-c2cn3c(n2)C(OC2CCN(C)CC2)c2ccccc2CC3)o1 (stereo not shown) [Example 51, 2-(5-methylfuran-2-yl)-4-(1-methylpiperidin-4-yloxy)-9,10-dihydro-4H-3,10a-diaza-benzo[f]azulene oxalate] | > 6.52
Cc1c(-c2ccncc2)nc2n1CCc1ccccc1C2OC1CCN(C)CC1 (stereo not shown) [Example 250, 1-methyl-4-(1-methylpiperidin-4-yloxy)-2-pyridin-4-yl-9,10-dihydro-4H-3,10a-diaza-benzo[f]azulene] | > 6.00
CN(C)CCCOC1c2ccccc2CCn2c1nc(I)c2I (stereo not shown) [Example 270, [3-(1,2-diiodo-9,10-dihydro-4H-3,10a-diaza-benzo[f]azulen-4-yloxy)-propyl]-dimethyl-amine] | > 6.00
Cc1c(-c2ccc(C3=CCCCCC3)cc2)nc2n1CCc1ccccc1C2OC1CCN(C)CC1 (stereo not shown) [Example 171, 2-(4-cyclohept-1-enylphenyl)-1-methyl-4-(1-methylpiperidin-4-yloxy)-9,10-dihydro-4H-3,10a-diaza-benzo[f]azulene] | > 7.52
CN1CCC(OC2c3cccc(-c4ccccc4)c3CCn3cc(-c4ccccc4)nc32)CC1 (stereo not shown) [Example 92, 4-(1-methylpiperidin-4-yloxy)-2,8-diphenyl-9,10-dihydro-4H-3,10a-diaza-benzo[f]azulene] | > 6.52
CN1CCC(OC2c3ccccc3CCn3c2nc(I)c3I)C1 (stereo not shown) [Example 268, 1,2-diiodo-4-(1-methylpyrrolidin-3-yloxy)-9,10-dihydro-4H-3,10a-diaza-benzo[f]azulene] | > 6.52
Cc1c(-c2ccc(NC(=S)NC3CC3)cc2)nc2n1CCc1ccccc1C2OC1CCN(C)CC1 (stereo not shown) [Example 208, 1-cyclopropyl-3-{4-[1-methyl-4-(1-methylpiperidin-4-yloxy)-9,10-dihydro-4H-3,10a-diaza-benzo[f]azulen-2-yl]-phenyl}-thiourea] | > 6.52
CN1CCC(OC2c3ccccc3CCn3cc(Cc4ccccc4)nc32)CC1 (stereo not shown) [Example 110, 2-benzyl-4-(1-methyl-piperidin-4-yloxy)-9,10-dihydro-4H-3,10a-diaza-benzo[f]azulene oxalate] | > 6.52
Cc1c(-c2ccc(NC(=O)OC(C)(C)C(Cl)(Cl)Cl)cc2)nc2n1CCc1ccccc1C2OC1CCN(C)CC1 (stereo not shown) [Example 175, {4-[1-methyl-4-(1-methylpiperidin-4-yloxy)-9,10-dihydro-4H-3,10a-diaza-benzo[f]azulen-2-yl]-phenyl}-carbamic acid 2,2,2-trichloro-1,1-dimethyl-ethyl ester] | > 7.52
CN(C)CCOc1ccc(-c2cn3c(n2)C(OC2CCN(C)CC2)c2ccccc2CC3)cc1 (stereo not shown) [Example 180, dimethyl-(2-{4-[4-(1-methylpiperidin-4-yloxy)-9,10-dihydro-4H-3,10a-diaza-benzo[f]azulen-2-yl]-phenoxy}-ethyl)-amine] | > 6.52
Cc1c(-c2ccc(N3CCN(C(C)C)C3=O)cc2)nc2n1CCc1ccccc1C2OC1CCN(C)CC1 (stereo not shown) [Example 178, 1-isopropyl-3-{4-[1-methyl-4-(1-methylpiperidin-4-yloxy)-9,10-dihydro-4H-3,10a-diaza-benzo[f]azulen-2-yl]-phenyl}-imidazolidin-2-one] | > 7.52

Reference: US9255101B2 (BIOPROJECT, priority 2012, dated 2016)
